From PubChem BioAssay AID1508591 come the findings set out here.

For the series the following is noted: rat; liver microsomes; pH 7.4; 15.0 min; 1.0 µM. On the technique in general: Liver microsomes are vesicles of endoplasmic reticulum, rich in cytochrome P450 enzymes.
Broadly, the half-life is the time needed for the level to fall by half in the phase considered. A lower half-life goes with fast loss. Regarding `O=[N+]([O-])c1ccc(-c2nc(Nc3ccc(F)c(F)c3)c3ccccc3n2)cc1`, the half-life is > 30 min.
For `Cc1cnc(-c2ccccc2C2CC2)nc1NCc1ccc(-c2cccnc2)cc1`, the half-life turned out to be 6.2 min.
In the case of `O=C(Nc1nnc(-c2ccco2)o1)c1ccc(Cl)cc1` it was 10.8 min; in that of `NC1(c2ccccc2Cl)CCCCC1=O` (configuration not stated), 11 min; in that of `COc1ccc(C(=O)CCN(C)C)cc1F`, 1.08 min.
Turning to `COc1ccc(/C=C2/C(=O)Nc3ccccc32)cc1O`, the half-life was > 30 min.
In the case of `O=S(=O)(Nc1nccs1)c1ccc(NCc2ccccc2O)cc1` it was 24 min; in that of `COc1nccc(-c2nc(Nc3ccc(F)c(F)c3)c3ccccc3n2)c1Cl`, > 30 min.
Regarding `CCCN1CNc2c(c(=O)[nH]c(=S)n2CCc2ccc(OC)c(OC)c2)C1`, the half-life came out at 18 min.
As for `COc1ccc(CN2CCNc3cc(Nc4ccccc4)ncc3C2)cc1`, the figure is 3.17 min; as for `Cn1nnnc1Sc1ncnc2scc(-c3cc4ccccc4o3)c12`, 1.05 min; as for `N#Cc1nc(-c2cccc3ccccc23)oc1NCc1ccccc1`, 8.6 min.
In the case of `O=C(c1ccccc1)N1CCC(C(=O)N2CCC(N3Cc4ccccc4C3=O)CC2)CC1` it was > 30 min.
As for `CNc1oc(-c2cccc3ccccc23)nc1C#N`, the figure is 17.7 min; as for `O=C(O)c1ccccc1C(=O)Nc1ccc(-c2ccccc2)cc1`, > 30 min; as for `NC(=O)C1CCN(c2nc(-c3ccc(Cl)cc3)cs2)CC1`, 3.09 min.
`CC(C)(N)C(=O)N[C@H](COCc1ccccc1)C(=O)N1CCC2(CC1)CN(S(C)(=O)=O)c1ccccc12` returned a half-life of 4.99 min.
As for `CCOc1ccc(CCNC(=O)c2cc3sccc3n2Cc2ccc(Cl)c(F)c2)cc1OCC`, the figure is 1.75 min; as for `Cc1cc(-c2ccc(C)c(S(=O)(=O)NCC3CCN(Cc4ccc(F)cc4)CC3)c2)on1`, 5.49 min.
`CCc1ccc(CNc2ccc3c(c2)ncn3C(C)(C)C)cc1` returned a half-life of 9.8 min.
`COC(=O)Nc1nc2ccc(SC(C)C)cc2[nH]1` gave a half-life of 9.99 min.
With `Cn1nnnc1Sc1ncnc2scc(Br)c12`, the half-life turned out to be 19.6 min.
Turning to `COc1ccc(-c2nc(CS(=O)CC(=O)N3CCC4(CC3)OCCO4)c(C)o2)cc1` (configuration not stated), the half-life is > 30 min.
`COC(=O)c1ccccc1NC(=O)c1ccccc1OC(F)F` came in with a half-life of 2.8 min.
As for `Cc1ccc(S(=O)(=O)Nc2cnccc2C(=O)Nc2ccc(C#N)cc2)cc1`, the figure is 7.5 min; as for `CN(C)c1ccc2cc(C(=O)N[C@@H](CCCN=C(N)CCl)C(=O)NCc3ccccc3)ccc2c1`, 5.3 min.
The molecule `Cc1ccc(NC(=O)NCC2CCN(Cc3cccc(Cl)c3)CC2)cc1Cl` returned a half-life of 14.1 min.
As for `CC(C)(O)C=CC(=O)[C@](C)(O)[C@H]1[C@H](O)C[C@]2(C)[C@@H]3CC=C4[C@@H](C=C(O)C(=O)C4(C)C)[C@]3(C)C(=O)C[C@@]12C`, the figure is > 30 min; as for `COc1cccc(CNc2ccc(S(=O)(=O)Nc3nc(C)c(C)s3)cc2)c1O`, 12 min.
Consider `Cc1ccc(N2CCC(CNc3nc(-c4ccccc4C(C)C)ncc3F)CC2)cn1`, for which the half-life came out at 2.4 min.
In the case of `Cc1c(-c2cccc(NC(=O)c3ccc(F)c(F)c3)c2)nc2ncccn12` it was 12.6 min; in that of `O=S(=O)(c1ccccc1)N1CCCCC1CCc1ccccc1` (configuration not stated), 2.32 min; in that of `CCOc1ccc(CCNC(=O)c2cc3ccccc3n2Cc2cc(C)cc(C)n2)cc1OCC`, 1.7 min.
`CC(C)C(=O)N1CCc2ccc(OCc3nc(C(=O)N4CCCC4)co3)cc2C1c1cccc(F)c1` (configuration not stated) displayed a half-life of 2.43 min.
In the case of `Cc1ccccc1C(=O)N1CCc2cc(-c3ccnc(NC(=O)Cc4ccccc4)n3)ccc21` it was 5.5 min; in that of `Cc1cc(/C=C2/C(=O)Nc3ccccc32)cc(C)c1O`, 11 min.
As for `CC1CCN(S(=O)(=O)c2ccc3c(ccc(=O)n3CC(=O)NCc3ccc(Cl)cc3)c2)CC1`, the figure is 1.45 min; as for `c1ccc(Nc2cc(-c3ccoc3)ncn2)cc1`, 8.6 min; as for `CC(=O)Nc1cccc(-c2csc(Nc3cc(C)ccn3)n2)c1`, > 30 min.
In the case of `Cc1cccc(-n2c(C)cc(C=C(C#N)C#N)c2C)c1` it was 1.64 min; in that of `CCn1ncc(NC(=O)Cn2ncc3cc(-c4cccc(OC)c4)ccc32)n1`, 20.4 min.
`O=S(=O)(Nc1cccc2cccnc12)c1ccc(NCc2ccc(Br)cc2O)cc1` showed a half-life of 2.4 min.
In the case of `Nc1ncnc2c1c(-c1ccc(Oc3ccccc3)cc1)cn2C1CCCC1` it was 10.9 min; in that of `Cc1cccc(-n2nc(C)c3c2NC(=O)CSC3c2ccccc2Cl)c1` (configuration not stated), 1.63 min; in that of `O=C(c1cnccn1)N1CCC2(CCCN(C(c3ccccc3)c3ccccc3)C2)CC1`, 1.8 min.
`Cc1noc(C)c1Cc1ccc(C(=O)N2CCc3c(nc4cc(-c5ccccc5)[nH]n4c3=O)C2)o1`: the half-life came to 3.38 min.
In the case of `CCc1ccccc1C(=O)N1CCc2cc(-c3nc(NC(=O)Cc4ccc5c(c4)OCO5)sc3C)ccc21`, the half-life was 7.2 min.
In the case of `Cc1sc(NC(=O)Cc2ccc3c(c2)OCO3)nc1-c1ccc2c(c1)CCN2C` it was 5.5 min; in that of `O=C(Cc1ccc(Cl)c(Cl)c1)Nc1ccc(S(=O)(=O)Nc2ccccc2)cc1`, 4.2 min; in that of `COc1ccc(-c2[nH]nc3ncc(-c4ccc(CO)cc4)nc23)cc1F`, 11.3 min.
In the case of `c1ccc2[nH]c(Nc3nc(-c4ccncc4)nc4ccccc34)nc2c1` it was 13 min.
As for `C[C@@H](CCC[C@@H]1SC[C@H]2NC(=O)N[C@H]12)C(=O)O`, the figure is > 30 min; as for `Nc1ccccc1OCCn1c(CCNC(=O)C2CCCCC2)nc2ccccc21`, 2.13 min; as for `COc1ccc(OC)c(-c2nnc3n2N=C(c2c(OC)cccc2OC)CS3)c1`, 1.4 min.
For the molecule `FC(F)(F)c1ccccc1-c1nc(NCc2ccc(-c3cccnc3)cc2)c2ccccc2n1`, the half-life came out at 9.18 min.
As for `CC(Nc1nc(N2CCN(S(C)(=O)=O)CC2)nc2ccccc12)c1ccccc1` (configuration not stated), the figure is 8.03 min; as for `CC(C)CS(=O)(=O)c1oc(-c2ccc(F)cc2)nc1S(=O)(=O)c1ccccc1`, 1.18 min.
In the case of `CC(C)(C)c1ccc(-n2cnc3cc(C(=O)N4CCCCC4)ccc32)cc1` it was 2.7 min.
As for `O=C(O)c1ccnc(-c2cc(C(=O)NCCc3ccccc3)ccn2)c1`, the figure is > 30 min; as for `Cc1ccc(S(=O)(=O)Nc2cnccc2C(=O)Nc2nc(-c3cccc(F)c3)cs2)cc1`, 27 min.
Consider `O=C1C(SCCO)=C(SCCO)C(=O)c2ccccc21`, for which the half-life is > 30 min.
In the case of `CN(c1ncccc1CNc1nc(Nc2ccc3c(c2)CC(=O)N3)ncc1C(F)(F)F)S(C)(=O)=O` it was > 30 min.
For the molecule `COc1cnccc1-c1nc(Nc2ccc(F)c(F)c2)c2ccccc2n1`, the half-life was > 30 min.
Molecule `COc1cc(C(=O)NC2CCCc3c2[nH]c2ccccc32)cc(OC)c1OC` (configuration not stated) came in with a half-life of 11.8 min.
In the case of `O=C(Nc1ncccc1O)c1ccc(S(=O)(=O)Nc2ccccc2)cc1` it was 2.58 min; in that of `COc1ccc(NC(=O)C23CC4CC(CC(C4)C2)C3)cc1[S+](=O)([O-])Nc1ccc(Br)cc1`, 5 min; in that of `FC(F)(F)c1ccc(CNc2nc(-c3ccccc3C(F)(F)F)nc3ccccc23)cc1`, > 30 min.
